The text below walks through data of ChEMBL document CHEMBL5143596, “The Design and Optimization of Monomeric Multitarget Peptides for the Treatment of Multifactorial Diseases” (J Med Chem, 2022).

Some results are limits rather than exact numbers.

The target of series [1] is Mu-type opioid receptor (Homo sapiens, UniProt P35372). The series can be described thus: Binding affinity at MOR (unknown origin) assessed as inhibition constant.
The nature of series [2]: Metabolic stability in rat plasma assessed as half life. It is filed as ADME, cell-free.

Sequence of Mu-type opioid receptor (P35372 whole entry): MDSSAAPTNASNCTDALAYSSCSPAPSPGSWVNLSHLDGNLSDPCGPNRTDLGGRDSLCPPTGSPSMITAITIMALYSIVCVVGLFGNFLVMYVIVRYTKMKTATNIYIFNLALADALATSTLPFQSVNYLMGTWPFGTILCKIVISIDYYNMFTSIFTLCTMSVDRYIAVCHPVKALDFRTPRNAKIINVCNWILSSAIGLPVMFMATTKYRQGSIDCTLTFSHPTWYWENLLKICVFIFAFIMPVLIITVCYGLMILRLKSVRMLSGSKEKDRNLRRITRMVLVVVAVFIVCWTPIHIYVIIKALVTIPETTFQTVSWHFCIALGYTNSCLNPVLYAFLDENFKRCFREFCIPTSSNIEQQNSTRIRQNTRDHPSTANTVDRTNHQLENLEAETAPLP

In the case of `Cc1cc(O)cc(C)c1C[C@H](N)C(=O)N[C@H](C)C(=O)NCC(=O)N(C)[C@@H](Cc1ccccc1)C(=O)N1CCC[C@H]1C(=O)N[C@@H](CC(C)C)C(=O)N[C@@H](Cc1c[nH]c2ccccc12)C(=O)NCc1cc(C(F)(F)F)cc(C(F)(F)F)c1`, in series [1], the Ki was 1 nM. Also, the half-life in series [2] is > 24 h.

The term Ki denotes a dissociation constant, usually derived from enzyme kinetics or from competition with a known ligand. As a reminder, the half-life is the time needed for the level to fall by half in the phase considered.
